The text below walks through data of the METLIN SMRT retention time set (Domingo-Almenara et al. 2019).

The series in a line: gradient 5% acetonitrile 3 min, to 50% in 2 min, to 85% in 15 min, held 3 min, 100 µL/min. The settings on record: column: Zorbax Extend-C18 2.1 x 50 mm; eluents: water / acetonitrile, 0.1% formic acid. The method in brief:
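Values are retention times taken from adduct peaks that software picked and an analyst inspected. The pure standards were run as mixtures of ~100 molecules on HPLC linked to a quadrupole time-of-flight mass spectrometer, in positive and negative ionization mode. A Zorbax Extend-C18 column (2.1 × 50 mm, 1.8 μm) was used at 100 μL/min with water and acetonitrile, each including 0.1% formic acid.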
On to `COCCNC(=O)C1CCc2sc(C(=O)N3CCCCC3)cc2C1` (stereo not given), for which the RP-LC retention time came out at 651 s.

With `CN(C)c1ccc2c(c1)CN(C(=O)c1cc(C3CC3)[nH]n1)CCO2`, the RP-LC retention time came out at 588 s. In turn, `Cc1cccc(NC(=O)Cn2ncn3c(C)c(C(=O)NCC(C)C)c(C)c3c2=O)c1` displayed an RP-LC retention time of 594 s.

Turning to `Cc1noc([C@@H]2CN(Cc3ccc(F)c(Cl)c3)C[C@H]2CO)n1`, the RP-LC retention time turned out to be 605 s. In the case of `CN1CCC(Oc2ncccc2NS(=O)(=O)N(C)C)CC1` it was 575 s; in that of `O=C(CSc1ccc(-n2cnc(-c3ccccc3)c2)nn1)Nc1ccc(F)cc1F`, 816 s. In the case of `Cc1cccc(-c2noc(-c3nn(CC(=O)N4CCCC4)c4ccccc34)n2)c1` it was 1080 s.

In the case of `O=C(NCCC1=CCCCC1)C1CCCN(c2ncc(-c3cccc(F)c3)cn2)C1` (stereo not given), the RP-LC retention time came to 1220 s.

In turn, `CSc1ccc(-c2noc(Cc3nnc(-c4cccc(Br)c4)o3)n2)cc1` had an RP-LC retention time of 1170 s. In the case of `COc1c(C(=O)NCc2ccc(C)o2)sc2cc(Cl)ccc12`, the RP-LC retention time stood at 1120 s.

Turning to `Cc1cc(C)nc(-n2nc(C)c3c2N(C)C(=O)CC3c2ccccc2Cl)n1` (stereo not given), the RP-LC retention time came to 810 s. In the case of `Cc1cccc(N2CC(C(=O)N(C)C)CC2=O)c1` (stereo not given) it was 660 s; in that of `Cc1cc(C(=O)N2CC(n3cc(COc4ccc(F)cc4)nn3)C2)n(C)n1`, 637 s; in that of `Cc1nnc(-c2coc(S(=O)(=O)N3CCOCC3)c2)o1`, 654 s. The result for `Cc1cccc(N2CCN([C@H]3CS(=O)(=O)C[C@@H]3S(=O)(=O)c3ccc(F)c(C)c3)CC2)c1` reads 986 s; that for `OCCCc1nc2ccccc2n1Cc1ccccc1Cl`, 568 s.

With `CCNc1nc(-c2nnc(-c3cccc(C)c3)o2)nc2ccccc12`, the RP-LC retention time worked out at 932 s. The result for `COCc1cc(=O)n(CC(=O)NCc2ccccc2)c(N)n1` reads 595 s. In the case of `Cc1cccc(N2CCN(c3ccc(SCC(=O)Nc4cccc(F)c4)nn3)CC2)c1` it was 896 s; in that of `CCc1ccc(C2=C(C)C(N3CCC(NC(=O)NCCCOC)CC3)=NS2(=O)=O)cc1`, 739 s. The molecule `CCOC(=O)C1=C(c2ccccc2)NC(SCC)=C(C#N)C1c1cccnc1` (stereo not given) gave an RP-LC retention time of 650 s. The result for `CCn1c(C(=O)NCCCOC(C)C)cc2c(-c3cccs3)nn(-c3ccccc3)c21` reads 1150 s; that for `Cn1c(=O)oc2cc(-c3noc(-c4ccccc4)n3)ccc21`, 1010 s; that for `CN1CCN(CCNC(=O)c2cc(-c3ccccc3)cn2C)CC1`, 600 s.

As to `CCOC(=O)CNC(=O)N1CCN(c2ccc(=O)n(-c3ccc(C)cc3)n2)CC1`, the RP-LC retention time was 683 s. In the case of `C=CCn1c(C)c(CC(=O)NCCC)c(=O)n2nc(-c3ccccc3)nc12` it was 730 s; in that of `COCCn1cc2c3c(cccc31)CN(C(=O)Nc1cc(F)cc(F)c1)CC2`, 963 s; in that of `CCC(=O)N(C1CCOCC1)C1CCN(S(=O)(=O)c2ccc(Cl)cc2C)CC1`, 911 s. For the molecule `CCC(CC)NC(=O)C1CCCCC(=O)N1` (stereo not given), the RP-LC retention time was found to be 652 s. The result for `O=C(NC1CC1)[C@@H]1C[C@H](Oc2ccccc2)CN1C(=O)COc1ccc(F)cc1` reads 813 s. In the case of `Cc1ccc(NC(=O)Cn2cnc3c(sc4nc(-c5ccccc5)ccc43)c2=O)c(C)c1` it was 1060 s. As for `Cc1cccc(Cn2nc3ccc(S(=O)(=O)N4CCOCC4)cn3c2=O)c1`, the RP-LC retention time turned out to be 826 s. With `CCCN1C(=O)COc2ccc(-c3csc(NC(=O)c4ccncc4)n3)cc21`, the RP-LC retention time amounted to 816 s.

`O=C1CC(c2ccccc2)N1` (stereo not given) had an RP-LC retention time of 646 s. In the case of `COCC1(O)CCOC2(CCN(Cc3c(F)cccc3Cl)CC2)C1` (stereo not given) it was 543 s.

In the case of `O=C(NCc1nc(-c2ccc(NS(=O)(=O)c3cccs3)cc2)no1)c1ccccc1`, the RP-LC retention time came to 848 s. `Cc1cccc(-c2noc(Cn3c(=O)n(C(C)C)c(=O)c4ccccc43)n2)c1` came in with an RP-LC retention time of 1170 s.

In turn, `COc1cc(C(=O)N2CCC3(CC2)NC(=O)c2cc(C)ccc2N3C)cc(OC)c1OC` had an RP-LC retention time of 730 s. The result for `CC(NC(=O)C1C(=O)NC2(C)CC1c1ccccc1O2)c1ccccc1` (stereo not given) reads 831 s; that for `c1ccc(CN2CCC3(CCc4ccccc43)CC2)cc1`, 784 s; that for `COC[C@@H]1CN(S(=O)(=O)c2ccc(C#N)cc2)C[C@H]1c1ccncc1`, 746 s. The result for `CC(C)c1noc(C2(NC(=O)c3cccc(Cl)c3)CCCCC2)n1` reads 1130 s; that for `O=C(CCc1nnn2c1CN(C(=O)c1ccoc1)CC2)N1CCOCC1`, 580 s. In the case of `CC(C)(C)c1ccc(S(=O)(=O)NCC(=O)Nc2ccc3c(c2)OCO3)cc1` it was 846 s. `O=C(NCc1csc(C2CCCN(C(=O)c3ccccc3)C2)n1)C1CC1` (stereo not given) gave an RP-LC retention time of 693 s. In the case of `Cc1cc2c(c(=O)n(-c3ccc(F)cc3)c(=O)n2CC(=O)Nc2ccccc2Cl)n1C` it was 858 s; in that of `COc1ccc(OC)c(NC(=O)N2CCC(N3CCN(Cc4ccccc4)C(=O)C3=O)CC2)c1`, 746 s; in that of `CC1CC(C)CN(CCCNC(=O)CCCOc2cc(=O)n(C)c3ccccc23)C1` (stereo not given), 604 s. In the case of `COc1ncc(C(=O)NCc2ccccc2F)cn1` it was 680 s; in that of `O=C(NC1CC1)c1ccc(OCC2CCCN2C(=O)Cc2ccc(F)cc2)cc1` (stereo not given), 813 s.

In turn, `O=C(O)CCc1csc(NC(=O)Nc2ccc(Cl)cc2)n1` yielded an RP-LC retention time of 717 s. Consider `CN(C)C/C=C/C(=O)Nc1cc2c(Nc3ccc(F)c(Cl)c3)ncnc2cc1O[C@H]1CCOC1`, for which the RP-LC retention time stood at 632 s. The molecule `C[C@H]1CN(C(=O)NCc2ccccc2)C[C@@H]1c1nc(-c2ccncc2)no1` had an RP-LC retention time of 715 s.

`CCc1nc(NCc2ccc3c(c2)OCO3)ncc1C(=O)O` displayed an RP-LC retention time of 766 s.

For the molecule `CCc1nn2c(S(=O)(=O)NC3CCCC3)c(C)nc2s1`, the RP-LC retention time came to 799 s. The result for `O=C(Nc1cccc2ccc(-n3ccnc3)nc12)c1ccccc1C(F)(F)F` reads 638 s; that for `O=C(NCc1ccc2c(c1)CCN2C(=O)c1ccccc1)C1CCN(S(=O)(=O)N2CCCC2)CC1`, 829 s; that for `COc1ccc(Nc2cc(C(=O)N3CCCCC3)nc3c(OC)cccc23)cc1OC`, 570 s. In the case of `Cc1nc(-c2ccc(-c3noc(-c4ccnn4C)n3)cc2)cs1` it was 1060 s; in that of `Fc1ccc(CN(C2=NCCN2)c2c(Cl)cccc2Cl)cc1`, 760 s.
